Earlier results in patent publication US20040116411A1, “Combination HIV therapy including camptothecin” (priority 2000, published 2004).

Tests used:
[1] = system: viral-associated topoisomerase I; conditions: HIV infection of human H9 cells, in vitro
HIV-1 LTR = conditions: human CD4+ lymphocytic cell line RPMI 8402
[2] = system: equine infectious anemia virus (EIAA); conditions: chronically infected cells
[3] = system: rous sarcoma virus (RSV) promoter
[4] = system: Moloney murine leukemia virus (MMLV)
[5] = system: human CD4+ lymphocytic cell line RPMI 8402; conditions: at the concentration used
HIV = conditions: by disrupting gp41 conformational changes associated with membrane fusion

For CC[C@@]1(O)C(=O)OCc2c1cc1n(c2=O)Cc2cc3c(CN(C)C)c(O)ccc3nc2-1 [Topotecan], the antiviral effects (HIV-1; CPT-K5 cell line, PBMC acutely infected with clinical isolates, OM10.1 cells latently infected, activated by TNF-α) is listed as “antiviral effects of topotecan were observed” and the “acute and chronic HIV-1 infections” value (HIV-1; in vitro) is listed as “inhibit”.

In the case of CC[C@@]1(O)C(=O)OCc2c1cc1n(c2=O)Cc2cc3ccccc3nc2-1 [camptothecin, 20(S)-camptothecin], the “activity of the viral-associated topoisomerase I” value [1] is given as “significantly reduced”, the “expression of downstream reporter gene under the control of HIV-1 LTR” value (HIV-1 LTR) is given as “inhibitory effects” and the EIAA replication [2] is given as “inhibits”. For the same compound, the “promoter activity of rous sarcoma virus (RSV)” value [3] was “did not inhibit”, the MMLV replication [4] was “inhibits” and the “expression of gro, a cellular gene” value (gro) was “did not inhibit”. For the same compound, the cell survival [5] was “not significantly affected”.

For enfuvirtide, the infection in vitro (HIV) is given as “inhibit infection in vitro”.
